Measurements: US20250352444A1, “Antimicrobial mixtures” (Symrise AG, priority 2022, published 2025)
Read-outs that look alike come from different tables or passages of the source. Blank lines part the entries; values can stand above or below the compound they belong to.

Tests used:
[1] = tested on: Porphyromonas gingivalis (DSM 20709, ATCC33277); experiment: Minimum inhibitory concentration (MIC), DIN 58940-8 micro dilution method; assay type: cell-based; details: for MIC: Porphyromonas gingivalis
Protocol: (§1) MIC data were evaluated based on DIN 58940-8 micro dilution method. For the experiments three relevant bacteria occurring in the oral biofilm were selected: Streptococcus mutans (DSM 20523, ATCC 25175), Porphyromonas gingivalis (DSM 20709, ATCC33277), and Prevotella intermedia (DSM 20706, ATCC25611).
(§2) All test organisms were cultivated in suitable complex medium and under anaerobic and/or microaerophilic conditions. Every test substance was applied as technical triplicate on a 96-microtiter plate in a total volume of 300 μL per well. The inoculum was directly transferred from a glycerin stock solution or from a freshly prepared preculture. Therefore 15 mL reagent tubes were filled with specific complex growth medium and inoculated with skim milk stocks of single strains. The incubation was done at 37° C. up to 48 h until an OD620>0.1-1.0. Suspensions were controlled microscopically. In both cases the bacteria were transferred and diluted to fresh complex medium on a 96 well plate.
(§3) Test substances were either the pure materials or mixtures. The mixtures contain a cooling compound and an aroma component according to claims. Further these effective building blocks can be included in an aroma composition. Therefore, nature identical (synthetic) bases (base nature identical A/B) and/or natural basic formulations (base natural A/B) can be added.
(§4) The mixtures contained either Carvacrol (synthetic material) or the natural oregano oil with a typical Carvacrol content in the range of 50-80%.
(§5) Test substances were 100-fold solved in dimethyl sulfoxide (DMSO) and diluted directly on the 96 well plate. As […] farnesol and/or triclosan were applied in appropriate concentrations from 1 to 100 ppm. An untreated medium control was applied as growth control. The incubation of the test plates was done for 16-24 h at 37° C. At the end of the experiment, growth was determined photometrically by detecting OD620 values using Sunrise Photometer (TECAN, Austria). Mean values of triplicates were calculated and normalized with blank values (growth medium with or without test substances). The growths of treated wells were evaluated in relation to the growth control. Minimum inhibition concentrations (MIC) were defined as minimal concentration (in ppm) that causes a complete inhibition of bacterial growth.
(§6) Synergies were calculated using the following formula. The formula can be modified according to the number of components per mixture. MIC stands for minimum inhibitory concentration with the dimension of parts per million [ppm].
(§7) [formula] • MICmix=MIC value of mixture [ppm] • PA=Percentage of component A [%] • MIC A=MIC value of component A [ppm] • PB=Percentage of component B [%] • MIC B=MIC value of component B [ppm] A synergism is given if the resulting value is below 1.

[2] = tested on: Prevotella intermedia (DSM 20706, ATCC25611); experiment: as above; assay type: cell-based; details: for MIC: Prevotella intermedia
Protocol: as §1, §2, §3, §4, §5, §6, §7

[3] = tested on: Streptococcus mutans (DSM 20523, ATCC 25175); experiment: as above; assay type: cell-based; details: for MIC: Streptococcus mutans
Protocol: as §1, §2, §3, §4, §5, §6, §7

oral biofilm = experiment: Ex vivo biofilm model (Calgary Biofilm Device, FDA hydrolysis); assay type: cell-based, human; details: compared to untreated control biofilm (100%); treatment 4 times within 2 days for 2 min at 37° C.
Protocol: The experiment was developed following the method described in WO2018/033211 and Kistler et al (Kistler et al. 2015).
Up to 50 subjects were recruited for saliva donation. Participants were between 18 and 65 years old and medically healthy. Subjects who had taken antibiotics, ate antimicrobial food such as garlic within last 24 h and/or had suffer from any systemic conditions that may affected their immune or inflammatory status, were excluded from the study. Fresh morning saliva from all donors were selected and pooled. All volunteers were asked to refrain from drinking, eating, or brushing their teeth bevor donating by expectoration into sterile universal tubes.
The Calgary Biofilm Device (CBD) was originally developed for medical usage. It is commercially available as MBEC (Minimum Biofilm Eradication Concentration) Biofilm Inoculator and it is suitable as a basis for biofilm research (Kistler et al. 2015; Ceri et al. 1999). […]
Stock solutions of all test substances were prepared in dimethylsulfoxide (DMSO). […] At the end the pegs were washed again, and microbial activity was quantified photometrically by fluorescein diacetate (FDA) hydrolysis. FDA is converted into fluorescein by protease, lipase, and esterase activities in the biofilm, thus the quantification of fluorescein represents the activity of the biofilm.

[4] = S. mutans, component alone, read-out: MIC B (MIC value of component B)
[5] = read-out: MIC A (MIC value of component A)

Compound: Cc1ccc(C(C)C)cc1O [Carvacrol]
MIC [1, 5]: 250 µg/mL
MIC [2, 5]: 250 µg/mL
MIC [3, 5]: 250 µg/mL
relative biofilm activity after treatment (FIG. 1) (oral biofilm): concentration dependent oral biofilm reduction

Compound: CC(O)COC(=O)O[C@@H]1C[C@H](C)CC[C@H]1C(C)C (stereo partly shown) [Menthyl propylene glycol carbonate]
MIC B (MIC value of component B) ([3]; S. mutans, component alone): 125 ppm

Compound: (−)-Menthyl propylene glycol carbonate
MIC B (MIC value of component B) ([1]; P. gingivalis, component alone): 125 ppm

Other lines, results leading:

MIC ([1]; P. gingivalis, component alone, read-out: MIC B (MIC value of component B)): 125 µg/mL
MIC ([2]; P. intermedia, component alone, read-out: MIC B (MIC value of component B)): 125 µg/mL
MIC [3, 4]: 250 µg/mL
Compound: CC(C)[C@@H]1CC[C@@H](C)C[C@H]1OC(=O)[C@@H](C)O (stereo in doubt) [Menthyl lactate]

MIC [3, 4]: 500 µg/mL
Compound: CC(C)[C@@H]1CC[C@@H](C)C[C@H]1OCC(O)CO (stereo partly drawn) [3-(−)-Menthoxy)propane-1,2-diol]

MIC B (MIC value of component B) ([1]; P. gingivalis, component alone): 250 ppm
MIC B (MIC value of component B) ([2]; P. intermedia, component alone): 250 ppm
MIC B (MIC value of component B) ([3]; S. mutans, component alone): 500 ppm
Compound: CC1CCC(C(C)C)C2(C1)OCC(CO)O2 [D,L-Menthone glyceryl ketal]
